Source: patent publication US20080227688A1, “Inhibition of viral replication” (priority 2007, published 2008)

System: reovirus
Assay type: cell-based, Dearing strain of reovirus serotype 3

SMILES: C[C@H](NC(=O)[C@H](Cc1ccccc1)NC(=O)OCc1ccccc1)C(=O)CF [Z-FA-FMK, N-benzyloxycarbonyl-Phe-Ala-fluoromethylketone]
- cure of persistent reovirus infection (western blot, reovirus antiserum): cured persistently infected cells
